This passage reports EC50 results from patent publication US11370785B2, “Multicyclic compounds as farnesoid X receptor modulators” (BRISTOL-MYERS SQUIBB COMPANY, priority 2017, dated 2022).

One assay has as its target T1, human FXR (Homo sapiens, UniProt Q96RI1).
T1 construct: expressed in transfected cells; host or cells: HEK293 cells stably carrying a 5xGal4-response-element firefly luciferase reporter, transiently transfected with the pcDNA3.1-Gal4-FXR plasmid
T1 sequence (Q96RI1 262-486 limits assumed): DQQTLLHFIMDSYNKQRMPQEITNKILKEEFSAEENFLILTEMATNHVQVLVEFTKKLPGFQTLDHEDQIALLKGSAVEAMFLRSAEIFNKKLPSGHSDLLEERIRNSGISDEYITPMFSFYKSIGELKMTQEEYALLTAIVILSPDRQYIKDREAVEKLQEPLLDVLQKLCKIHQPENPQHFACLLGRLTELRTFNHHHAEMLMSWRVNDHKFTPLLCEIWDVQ
Briefly: transient human FXR/Gal4-luciferase reporter assay. The assay is classed as cell-based. The settings on record: Gal4-hFXR reporter in HEK293 cells; read-out: HLE GAL-FXR EC50. Put shortly:
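HEK293 cells stably carrying a 5×Gal4-response-element firefly luciferase reporter, transiently transfected with a CMV-driven Gal4 DNA-binding domain–human FXR ligand-binding domain fusion, were treated overnight at 37 °C with serially diluted compounds. Luminescence was read by Steady-Glo; DMSO background was subtracted and signal expressed as percent of the 8 μM GW-4064 response.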
Background: Reporter assays use an easily measured gene product as a stand-in for the process of interest.
Usually EC50 stands for the concentration giving half of the maximal effect. Regarding `O=C(O)c1cc(F)c2nc(N3CCC4(CC3)CC(=Cc3c(-c5c(Cl)cccc5Cl)cnn3C3CC3)C4)sc2c1` [Example 8, 2-(2-((1-Cyclopropyl-4-(2,6-dichlorophenyl)-1H-pyrazol-5-yl)methylene)-7-azaspiro[3.5]nonan-7-yl)-4-fluorobenzo[d]thiazole-6-carboxylic acid], the EC50 came to 422 nM.
On the same count and under the same terms, then `O=C(NS(=O)(=O)C1CC1)c1cc(C(F)(F)F)c2cc(N3CCC4(CC3)CC(Cc3c(-c5ccccc5C(F)(F)F)noc3C3CC3)C4)ccc2n1` [Example 82, 6-(2-((5-Cyclopropyl-3-(2-(trifluoromethyl)phenyl)isoxazol-4-yl)methyl)-7-azaspiro[3.5]nonan-7-yl)-N-(cyclopropylsulfonyl)-4-(trifluoromethyl)quinoline-2-carboxamide], with 11 nM.

The same assay, now with this note: Gal4-hFXR reporter in HEK293 cells; relative to 8 μM GW-4064; read-out: FXR EC50.
With `O=C(O)c1cc(OCC2CC2)c2cc(N3CCC4(CC3)CC(=Cc3c(-c5ccccc5OC(F)(F)F)noc3C3CC3)C4)ccc2n1` [Example 87], the EC50 was 34 nM.
Same read-out and setting: then `O=C(O)c1cc(F)c2nc(N3CCC4(CC3)CC(Cc3c(-c5c(Cl)cccc5Cl)noc3C3CC3)C4)sc2c1` [Example 11], with 44 nM; and `Cn1cc(C(=O)O)c2ccc(N3CCC4(CC3)CC(=Cc3c(-c5ccccc5OC(F)(F)F)noc3C3CC3)C4)cc21` [Example 27], with 21 nM.
The same measure, in the same setting: then `O=C(O)c1cccc(N2CCC3(CC2)CC(Cc2c(-c4c(Cl)cccc4Cl)noc2C2CC2)C3)n1` [Example 12], with 2190 nM; and `COCc1onc(-c2c(Cl)cncc2Cl)c1C=C1CC2(CCN(c3ccc4nc(C(=O)O)cc(C(F)(F)F)c4c3)CC2)C1` [Example 158], with 33 nM.
On the same count and under the same terms, for `COc1cc(C(=O)O)nc2ccc(N3CCC4(CC3)CC(Cc3c(-c5ccccc5C(F)(F)F)noc3C3CC3)C4)cc12` [Example 69] the value was 17 nM; for `NC(=O)N1CCc2cc(N3CCC4(CC3)CC(=Cc3c(-c5ccccc5OC(F)(F)F)noc3C3CC3)C4)ccc2C1` [Example 180, 6-(2-((5-Cyclopropyl-3-(2-(trifluoromethoxy)phenyl)isoxazol-4-yl)methylene)-7-azaspiro[3.5]nonan-7-yl)-3,4-dihydroisoquinoline-2(1H)-carboxamide], 1400 nM; for `O=C(O)c1ncc(N2CCC3(CC2)CC(=Cc2c(-c4ccccc4C(F)(F)F)noc2C2CC2)C3)cc1C(F)(F)F` [Example 157], 2470 nM.
As to `O=C(O)c1cc(F)c2nc(N3CCC4(CC3)CC(=Cc3c(-c5ccccc5C(F)(F)F)noc3C(F)(F)F)C4)sc2c1` [Example 169], the EC50 came out at 650 nM.
The same measure, in the same setting: for `CCOc1cc(C(=O)O)nc2ccc(N3CCC4(CC3)CC(=Cc3c(-c5ccccc5C(F)(F)F)noc3C3CC3)C4)cc12` [Example 100] the value was 18 nM; for `CC(C)Oc1cc(C(=O)O)nc2ccc(N3CCC4(CC3)CC(=Cc3c(-c5ccccc5OC(F)(F)F)noc3C3CC3)C4)cc12` [Example 80], 2 nM; for `O=C(O)c1ccc(S(=O)(=O)N2CCC3(CC2)CC(Cc2c(-c4c(Cl)cccc4Cl)noc2C2CC2)C3)cc1` [Example 174], 540 nM.
On the same count and under the same terms, for `O=C(O)c1cc(OC2CCC2)c2cc(N3CCC4(CC3)CC(=Cc3c(-c5c(Cl)cncc5Cl)noc3C(F)(F)F)C4)ccc2n1` [Example 164] the value was 11 nM; for `O=C(O)c1cc(C(F)(F)F)c2cc(N3CCC4(CC3)CC(=Cc3c(-c5c(Cl)cccc5Cl)noc3C(F)(F)F)C4)ccc2n1` [Example 136], 27 nM.
Same read-out and setting: then `O=C(O)COc1ccc(N2CCC3(CC2)CC(=Cc2c(-c4c(Cl)cccc4Cl)noc2C2CC2)C3)cc1` [Example 61], with 461 nM.
In the case of `O=C(O)c1cc(OC2CCCC2)c2cc(N3CCC4(CC3)CC(=Cc3c(-c5ccccc5C(F)(F)F)noc3C3CC3)C4)ccc2n1` [Example 120], the EC50 was determined as 3 nM.
Still for that read-out and setting: for `CCOc1cc(C(N)=O)ncc1N1CCC2(CC1)CC(=Cc1c(-c3c(Cl)cncc3Cl)noc1C1CC1)C2` [Example 146] the value was 112 nM.
Still for that read-out and setting: then `CC(C)(C)OC(=O)N1c2ccc(N3CCC4(CC3)CC(=Cc3c(-c5ccccc5OC(F)(F)F)noc3C3CC3)C4)cc2CCC1C(=O)O` (stereo not drawn) [Example 111], with 481 nM; and `COc1cc(C(=O)O)nc2ccc(N3CCC4(CC3)CC(=Cc3c(-c5c(Cl)cccc5Cl)noc3C(F)(F)F)C4)cc12` [Example 140], with 4 nM; and `O=C(O)c1nc(C(F)(F)F)n2cc(N3CCC4(CC3)CC(=Cc3c(-c5ccccc5C(F)(F)F)noc3C3CC3)C4)ccc12` [Example 33], with 6 nM.
Still for that read-out and setting: for `O=C(O)c1cc(OC2CCCC2)c2cc(N3CCC4(CC3)CC(Cc3c(-c5ccccc5OC(F)(F)F)noc3C3CC3)C4)ccc2n1` [Example 122] the value was 16 nM; for `Cc1cc(C(=O)O)cc2sc(N3CCC4(CC3)CC(=Cc3c(-c5c(Cl)cncc5Cl)noc3C3CC3)C4)nc12` [Example 89], 53 nM; for `O=C(O)c1cc(F)c2nc(N3CCC4(CC3)CC(=Cc3c(-c5c(Cl)cncc5Cl)noc3C(F)(F)F)C4)sc2c1` [Example 150], 110 nM.
Regarding `NC(=O)c1cc(C(F)(F)F)c2cc(N3CCC4(CC3)CC(Cc3c(-c5ccccc5C(F)(F)F)noc3C3CC3)C4)ccc2n1` [Example 177], the half-maximal effective concentration (EC50) came to 2240 nM.
The same measure, in the same setting: then `O=C(O)c1cc(C(F)(F)F)c2cc(N3CCC4(CC3)CC(=Cc3c(-c5ccncc5C(F)(F)F)noc3C3CC3)C4)ccc2n1` [Example 128], with 19 nM; and `O=C(O)c1cc(F)c2nc(N3CCC4(CC3)CC(Nc3c(-c5ccccc5OC(F)(F)F)noc3C3CC3)C4)sc2c1` [Example 18], with 77 nM.
Still for that read-out and setting: then `O=C(O)c1cc2ccc(N3CCC4(CC3)CC(=Cc3c(-c5ccccc5C(F)(F)F)noc3C3CC3)C4)cc2nn1` [Example 36], with 878 nM; and `O=C(c1cc(OC2CCC2)c2cc(N3CCC4(CC3)CC(Cc3c(-c5ccccc5C(F)(F)F)noc3C3CC3)C4)ccc2n1)N1CC(F)(F)C1` [Example 186], with 1930 nM; and `CCOc1cc(C(N)=O)ncc1N1CCC2(CC1)CC(Cc1c(-c3ccccc3C(F)(F)F)noc1C1CC1)C2` [Example 144], with 327 nM.
On the same count and under the same terms, then `O=C(O)c1ccc2nc(N3CCC4(CC3)CC(=Cc3c(-c5ccccc5C(F)(F)F)noc3C3CC3)C4)sc2n1` [Example 113], with 1240 nM; and `O=C(O)c1cccc(N2CCC3(CC2)CC(Nc2c(-c4c(Cl)cccc4Cl)noc2C2CC2)C3)n1` [Example 14], with 1570 nM.
For `O=C(O)c1cc(CO)c2cc(N3CCC4(CC3)CC(Cc3c(-c5ccccc5C(F)(F)F)noc3C3CC3)C4)ccc2n1` [Example 154], the concentration for a half-maximal effect (EC50) turned out to be 326 nM.
The same measure, in the same setting: then `CC(C)Oc1cc(C(=O)O)nc2ccc(N3CCC4(CC3)CC(Cc3c(-c5ccccc5OC(F)(F)F)noc3C3CC3)C4)cc12` [Example 90], with 12 nM; and `COCc1onc(-c2c(Cl)cncc2Cl)c1C=C1CC2(CCN(c3nc4c(F)cc(C(=O)O)cc4s3)CC2)C1` [Example 155], with 120 nM; and `O=C(O)c1cc(F)c2nc(N3CCC4(CC3)CC(=Cc3c(-c5ccncc5C(F)(F)F)noc3C3CC3)C4)sc2c1` [Example 127], with 198 nM.
The same measure, in the same setting: then `O=C(O)c1cc(F)c2nc(N3CCC4(CC3)CC(=Cc3c(-c5c(Cl)cncc5Cl)noc3C3CC3)C4)sc2c1` [Example 88], with 69 nM.
The same measure, in the same setting: for `Cn1cc(C(=O)O)c2ccc(N3CCC4(CC3)CC(=Cc3c(-c5ccccc5C(F)(F)F)noc3C3CC3)C4)cc21` [Example 39] the value was 4 nM.
